System: 242566-281-R-J2-PDC complex spheroid viability
Assay: Anticancer human tumor 242566-281-R-J2-PDC patient-derived pancreatic carcinoma cell line growth inhibition [RAS]
Details: for viability, T/C: stronger effect = lower value
How it was run: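 Multi-cell-type spheroids: tumor cells plus HUVEC endothelial cells and mesenchymal stem cells. RAS-pathway inhibitors were combined with targeted agents, each dosed in half-log steps down from clinical Cmax, or from 10 microM when Cmax was unknown.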

[1] = curve of first compound, second compound 0.000949 µM
[2] = curve of first compound, second compound 0.003 µM
[3] = curve of first compound, second compound 0.00949 µM
[4] = curve of first compound, second compound 0.03 µM
[5] = curve of first compound, second compound 0.0949 µM
[6] = curve of first compound, second compound 0.3 µM
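Also: spheroids exposed to compound for 7 days before readout.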
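For viability, T/C in this document: 100% = DMSO vehicle control wells.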

`CC1(C)CCC(Nc2ncc(C(F)(F)F)c(-c3c[nH]c4c(P(C)(C)=O)c(C#N)ccc34)n2)CN1` (stereo not drawn) + CCn1c(-c2cccnc2C(C)OC)c2c3cc(ccc31)N1CCOC(CC(NC(=O)C(C(C)C)N(C)C(=O)C3(F)CCN(C(=O)C#CC(C)(C)N(C)C)CC3)C(=O)N3CCCC(N3)C(=O)OCC(C)(C)C2)C1 showed an IC50 [1] greater than 0.3 µM, an IC50 [2] greater than 0.3 µM and an IC50 [3] greater than 0.3 µM. It also gave an IC50 [4] greater than 0.3 µM, an IC50 [5] greater than 0.3 µM and an IC50 [6] greater than 0.3 µM. The viability, T/C (second compound 0.000949 µM, first compound 0.000949 µM) was 114%, the viability, T/C (second compound 0.000949 µM, first compound 0.003 µM) was 100% and the viability, T/C (second compound 0.000949 µM, first compound 0.00949 µM) was 77.1%. The viability, T/C (second compound 0.000949 µM, first compound 0.03 µM) was 97.6%, the viability, T/C (second compound 0.000949 µM, first compound 0.0949 µM) was 94% and the viability, T/C (second compound 0.000949 µM, first compound 0.3 µM) was 70.7%. It also gave a viability, T/C (second compound 0.003 µM, first compound 0.000949 µM) of 111%, a viability, T/C (second compound 0.003 µM, first compound 0.003 µM) of 86% and a viability, T/C (second compound 0.003 µM, first compound 0.00949 µM) of 82.8%. The viability, T/C (second compound 0.003 µM, first compound 0.03 µM) was 88.2%, the viability, T/C (second compound 0.003 µM, first compound 0.0949 µM) was 95.4% and the viability, T/C (second compound 0.003 µM, first compound 0.3 µM) was 73.6%. The viability, T/C (second compound 0.00949 µM, first compound 0.000949 µM) was 109%, the viability, T/C (second compound 0.00949 µM, first compound 0.003 µM) was 86.5% and the viability, T/C (second compound 0.00949 µM, first compound 0.00949 µM) was 92.3%. For the same compound, the viability, T/C (second compound 0.00949 µM, first compound 0.03 µM) was 90.7%, the viability, T/C (second compound 0.00949 µM, first compound 0.0949 µM) was 90.5% and the viability, T/C (second compound 0.00949 µM, first compound 0.3 µM) was 82.9%. The viability, T/C (second compound 0.03 µM, first compound 0.000949 µM) was 95.4%, the viability, T/C (second compound 0.03 µM, first compound 0.003 µM) was 103% and the viability, T/C (second compound 0.03 µM, first compound 0.00949 µM) was 96%. The viability, T/C (second compound 0.03 µM, first compound 0.03 µM) was 91.1%, the viability, T/C (second compound 0.03 µM, first compound 0.0949 µM) was 70.4% and the viability, T/C (second compound 0.03 µM, first compound 0.3 µM) was 93.4%. It also gave a viability, T/C (second compound 0.0949 µM, first compound 0.000949 µM) of 88.2%, a viability, T/C (second compound 0.0949 µM, first compound 0.003 µM) of 93.4% and a viability, T/C (second compound 0.0949 µM, first compound 0.00949 µM) of 90.3%. The viability, T/C (second compound 0.0949 µM, first compound 0.03 µM) was 84.8%, the viability, T/C (second compound 0.0949 µM, first compound 0.0949 µM) was 64.8% and the viability, T/C (second compound 0.0949 µM, first compound 0.3 µM) was 79.2%. It also gave a viability, T/C (second compound 0.3 µM, first compound 0.000949 µM) of 91%, a viability, T/C (second compound 0.3 µM, first compound 0.003 µM) of 83.9% and a viability, T/C (second compound 0.3 µM, first compound 0.00949 µM) of 75.2%. For the same compound, the viability, T/C (second compound 0.3 µM, first compound 0.03 µM) was 63.8%, the viability, T/C (second compound 0.3 µM, first compound 0.0949 µM) was 71.8% and the viability, T/C (second compound 0.3 µM, first compound 0.3 µM) was 79.8%.

With `CC(=O)OC12COC1CC(O)C1(C)C(=O)C(O)C3=C(C)C(OC(=O)C(O)C(NC(=O)OC(C)(C)C)c4ccccc4)CC(O)(C(OC(=O)c4ccccc4)C21)C3(C)C` (stereo not drawn) the viability, T/C (compound 0.0316 µM) was 54.6% [middle of 4 runs], the viability, T/C (compound 0.316 µM) was 47.6% [middle of 4 runs] and the viability, T/C (compound 1 µM) was 43.5% [middle of 4 runs]. For the same compound, the viability, T/C (compound 3.16 µM) was 51.3% [middle of 4 runs].

`CC1(O)CCCC1n1c(=O)c(C(F)F)cc2cnc(NC3CCN(S(C)(=O)=O)CC3)nc21` (stereo not drawn) + CCn1c(-c2cccnc2C(C)OC)c2c3cc(ccc31)N1CCOC(CC(NC(=O)C(C(C)C)N(C)C(=O)C3(F)CCN(C(=O)C#CC(C)(C)N(C)C)CC3)C(=O)N3CCCC(N3)C(=O)OCC(C)(C)C2)C1 gave an IC50 [1] of 6.36 µM, an IC50 [2] of 5.99 µM and an IC50 [3] of 7.7 µM. It also gave an IC50 [4] greater than 10 µM, an IC50 [5] greater than 10 µM and an IC50 [6] of 6.33 µM. It also gave a viability, T/C (second compound 0.000949 µM, first compound 0.0316 µM) of 86.4%, a viability, T/C (second compound 0.000949 µM, first compound 0.1 µM) of 70.1% and a viability, T/C (second compound 0.000949 µM, first compound 0.316 µM) of 63.5%. It also gave a viability, T/C (second compound 0.000949 µM, first compound 1 µM) of 94.3%, a viability, T/C (second compound 0.000949 µM, first compound 3.16 µM) of 114% and a viability, T/C (second compound 0.000949 µM, first compound 10 µM) of 26.9%. The viability, T/C (second compound 0.003 µM, first compound 0.0316 µM) was 77.3%, the viability, T/C (second compound 0.003 µM, first compound 0.1 µM) was 63.5% and the viability, T/C (second compound 0.003 µM, first compound 0.316 µM) was 71.9%. The viability, T/C (second compound 0.003 µM, first compound 1 µM) was 91.5%, the viability, T/C (second compound 0.003 µM, first compound 3.16 µM) was 110% and the viability, T/C (second compound 0.003 µM, first compound 10 µM) was 23.6%. For the same compound, the viability, T/C (second compound 0.00949 µM, first compound 0.0316 µM) was 84.6%, the viability, T/C (second compound 0.00949 µM, first compound 0.1 µM) was 62.4% and the viability, T/C (second compound 0.00949 µM, first compound 0.316 µM) was 70.3%. The viability, T/C (second compound 0.00949 µM, first compound 1 µM) was 86.8%, the viability, T/C (second compound 0.00949 µM, first compound 3.16 µM) was 95.9% and the viability, T/C (second compound 0.00949 µM, first compound 10 µM) was 41.2%. For the same compound, the viability, T/C (second compound 0.03 µM, first compound 0.0316 µM) was 78.6%, the viability, T/C (second compound 0.03 µM, first compound 0.1 µM) was 82% and the viability, T/C (second compound 0.03 µM, first compound 0.316 µM) was 83.9%. The viability, T/C (second compound 0.03 µM, first compound 1 µM) was 85.8%, the viability, T/C (second compound 0.03 µM, first compound 3.16 µM) was 84.9% and the viability, T/C (second compound 0.03 µM, first compound 10 µM) was 53.1%. For the same compound, the viability, T/C (second compound 0.0949 µM, first compound 0.0316 µM) was 69.1%, the viability, T/C (second compound 0.0949 µM, first compound 0.1 µM) was 62.8% and the viability, T/C (second compound 0.0949 µM, first compound 0.316 µM) was 69.6%. It also gave a viability, T/C (second compound 0.0949 µM, first compound 1 µM) of 90%, a viability, T/C (second compound 0.0949 µM, first compound 3.16 µM) of 90% and a viability, T/C (second compound 0.0949 µM, first compound 10 µM) of 54.4%. It also gave a viability, T/C (second compound 0.3 µM, first compound 0.0316 µM) of 64.8%, a viability, T/C (second compound 0.3 µM, first compound 0.1 µM) of 67.4% and a viability, T/C (second compound 0.3 µM, first compound 0.316 µM) of 71.6%. It also gave a viability, T/C (second compound 0.3 µM, first compound 1 µM) of 78.9%, a viability, T/C (second compound 0.3 µM, first compound 3.16 µM) of 101% and a viability, T/C (second compound 0.3 µM, first compound 10 µM) of 32.6%.

For `C=CC(=O)Nc1cc(Nc2nccc(-c3cn(C)c4ccccc34)n2)c(OC)cc1N(C)CCN(C)C`, the viability, T/C (compound 0.00316 µM) was 105% [middle of 4 runs], the viability, T/C (compound 0.01 µM) was 101% [middle of 4 runs] and the viability, T/C (compound 0.0316 µM) was 90.5% [middle of 4 runs]. For the same compound, the viability, T/C (compound 0.1 µM) was 91.2% [middle of 4 runs] and the IC50 (curve of compound) was greater than 1 µM.

— PubChem BioAssay AID2060910 (Molecular Pharmacology Branch, DTP, NCI, 2025)
